Measured values: PubChem BioAssay AID260 (DTP/NCI, 2004)
Values joined by “and” are separate entries in the source; they are usually repeats but may differ in a detail not shown here. Equal entries are not always repeated. Inconclusive results and toxic doses are left out.

Test system: CD2F1 mice, intracerebral L1210 leukemia, survival T/C
Test: NCI In Vivo Anticancer Drug Screen. Data for tumor model L1210 Leukemia (intracerebral) in CD2F1 (CDF1) mice
Conditions: higher = longer survival
Experimental: The antitumor activity of compounds was measured in mice bearing transplantable tumors. Survival or tumor size were measured and the results are expressed as the measurement made in the treated group (T) divided by the measurement made in the vehicle treated control group (C). The tumor model used in this assay is L1210 Leukemia (intracerebral) in CD2F1 (CDF1) mice

[1] = endpoint: mean survival time, dose: 50.0 mg/kg/injection, schedule: Q01DX009 (ip), vehicle: saline
[2] = endpoint: mean survival time, dose: 100.0 mg/kg/injection, schedule: Q01DX009 (ip), vehicle: saline
[3] = endpoint: mean survival time, dose: 200.0 mg/kg/injection, schedule: Q01DX009 (ip), vehicle: saline

## N=C(N)SCc1c2ccccc2c(CSC(=N)N)c2ccccc12
[1]
  T/C: 103 % of control
[2]
  T/C: 124 % of control
[3]
  T/C: 88 % of control
endpoint: median survival time, dose: 2.5 mg/kg/injection, schedule: Q01DX005 (ip), vehicle: Klucel (hydroxypropylcellulose) (HPC)
  T/C: 93 % of control and 98 % of control
endpoint: median survival time, dose: 5.0 mg/kg/injection, schedule: Q01DX005 (ip), vehicle: Klucel (hydroxypropylcellulose) (HPC)
  T/C: 97 % of control and 112 % of control
endpoint: median survival time, dose: 10.0 mg/kg/injection, schedule: Q01DX005 (ip), vehicle: Klucel (hydroxypropylcellulose) (HPC)
  T/C: 103 % of control and 115 % of control
endpoint: median survival time, dose: 20.0 mg/kg/injection, schedule: Q01DX005 (ip), vehicle: Klucel (hydroxypropylcellulose) (HPC)
  T/C: 103 % of control and 112 % of control

## COc1cccc2c1C(=O)c1c(O)c3c(c(O)c1C2=O)C[C@@](O)(/C(C)=N/NC(=O)c1ccccc1)C[C@@H]3OC1CC(N)C(O)C(C)O1 (some centres undefined)
endpoint: median survival time, dose: 1.0 mg/kg/injection, schedule: Q01DX009 (ip), vehicle: saline with Tween-80
  T/C: 114 % of control
endpoint: median survival time, dose: 1.0 mg/kg/injection, schedule: Q01DX009 (ip), vehicle: saline
  T/C: 98 % of control and 104 % of control
endpoint: median survival time, dose: 2.0 mg/kg/injection, schedule: Q01DX009 (ip), vehicle: saline with Tween-80
  T/C: 123 % of control
endpoint: median survival time, dose: 2.0 mg/kg/injection, schedule: Q01DX009 (ip), vehicle: saline
  T/C: 103 % of control and 104 % of control
endpoint: median survival time, dose: 4.0 mg/kg/injection, schedule: Q01DX009 (ip), vehicle: saline with Tween-80
  T/C: 123 % of control
endpoint: median survival time, dose: 4.0 mg/kg/injection, schedule: Q01DX009 (ip), vehicle: saline
  T/C: 106 % of control and 110 % of control
endpoint: median survival time, dose: 8.0 mg/kg/injection, schedule: Q01DX009 (ip), vehicle: saline with Tween-80
  T/C: 101 % of control
endpoint: median survival time, dose: 8.0 mg/kg/injection, schedule: Q01DX009 (ip), vehicle: saline
  T/C: 92 % of control and 116 % of control
endpoint: median survival time, dose: 16.0 mg/kg/injection, schedule: Q01DX009 (ip), vehicle: saline with Tween-80
  T/C: 89 % of control

## CC1CC(C)/C(=N/NC(N)=S)C(C(O)CC2CC(=O)NC(=O)C2)C1 (centres undefined)
endpoint: mean survival time, dose: 25.0 mg/kg/injection, schedule: Q01DX009 (ip), vehicle: saline
  T/C: 101 % of control
[1]
  T/C: 100 % of control
[2]
  T/C: 105 % of control
[3]
  T/C: 106 % of control
endpoint: mean survival time, dose: 400.0 mg/kg/injection, schedule: Q01DX009 (ip), vehicle: saline
  T/C: 101 % of control

## Nc1ncnc2c1ncn2C1OC(COP(=O)(O)O)C(O)C1O (centres undefined)
endpoint: median survival time, dose: 100.0 mg/kg/injection, schedule: Q01DX009 (ip), vehicle: saline
  T/C: 109 % of control and 110 % of control and 112 % of control
endpoint: median survival time, dose: 200.0 mg/kg/injection, schedule: Q01DX009 (ip), vehicle: saline
  T/C: 97 % of control and 104 % of control and 115 % of control
endpoint: median survival time, dose: 400.0 mg/kg/injection, schedule: Q01DX009 (ip), vehicle: saline
  T/C: 96 % of control and 101 % of control and 117 % of control
endpoint: median survival time, dose: 800.0 mg/kg/injection, schedule: Q01DX009 (ip), vehicle: saline
  T/C: 101 % of control and 108 % of control

## COS(C)(=O)=O
endpoint: median survival time, dose: 16.0 mg/kg/injection, schedule: Q01DX005 (ip), vehicle: saline
  T/C: 107 % of control and 108 % of control
endpoint: median survival time, dose: 32.0 mg/kg/injection, schedule: Q01DX005 (ip), vehicle: saline
  T/C: 120 % of control
endpoint: median survival time, dose: 64.0 mg/kg/injection, schedule: Q01DX005 (ip), vehicle: saline
  T/C: 113 % of control
endpoint: median survival time, dose: 128.0 mg/kg/injection, schedule: Q01DX005 (ip), vehicle: saline
  T/C: 107 % of control and 111 % of control

## CC1CN1C(=O)NCCCCCCNC(=O)N1CC1C (centres undefined)
endpoint: median survival time, dose: 1.25 mg/kg/injection, schedule: Q01DX009 (ip), vehicle: Klucel (hydroxypropylcellulose) (HPC)
  T/C: 103 % of control
endpoint: median survival time, dose: 2.5 mg/kg/injection, schedule: Q01DX009 (ip), vehicle: Klucel (hydroxypropylcellulose) (HPC)
  T/C: 102 % of control
endpoint: median survival time, dose: 5.0 mg/kg/injection, schedule: Q01DX009 (ip), vehicle: Klucel (hydroxypropylcellulose) (HPC)
  T/C: 112 % of control
endpoint: median survival time, dose: 10.0 mg/kg/injection, schedule: Q01DX009 (ip), vehicle: Klucel (hydroxypropylcellulose) (HPC)
  T/C: 120 % of control
endpoint: median survival time, dose: 20.0 mg/kg/injection, schedule: Q01DX009 (ip), vehicle: Klucel (hydroxypropylcellulose) (HPC)
  T/C: 120 % of control

## CSCS(=O)C[C@H](CO)NC(=O)/C=C/c1c(C)[nH]c(=O)[nH]c1=O (some centres undefined)
endpoint: median survival time, dose: 0.06 mg/kg/injection, schedule: Q01DX005 (ip), vehicle: Klucel (hydroxypropylcellulose) (HPC)
  T/C: 97 % of control and 102 % of control
endpoint: median survival time, dose: 0.12 mg/kg/injection, schedule: Q01DX005 (ip), vehicle: Klucel (hydroxypropylcellulose) (HPC)
  T/C: 100 % of control and 101 % of control
endpoint: median survival time, dose: 0.25 mg/kg/injection, schedule: Q01DX005 (ip), vehicle: Klucel (hydroxypropylcellulose) (HPC)
  T/C: 100 % of control and 105 % of control
endpoint: median survival time, dose: 0.5 mg/kg/injection, schedule: Q01DX005 (ip), vehicle: Klucel (hydroxypropylcellulose) (HPC)
  T/C: 100 % of control and 102 % of control

## O=NN(CCCl)C(=O)NCCCl
endpoint: mean survival time, dose: 10.0 mg/kg/injection, schedule: Q01DX001 (ip), vehicle: saline
  T/C: 175 % of control
endpoint: mean survival time, dose: 15.0 mg/kg/injection, schedule: Q01DX002 (ip), vehicle: saline + alcohol
  T/C: 184 % of control
endpoint: mean survival time, dose: 20.0 mg/kg/injection, schedule: Q01DX001 (ip), vehicle: saline + alcohol
  T/C: 169 % of control and 182 % of control
endpoint: mean survival time, dose: 20.0 mg/kg/injection, schedule: Q01DX001 (ip), vehicle: saline
  T/C: 210 % of control and 254 % of control
endpoint: mean survival time, dose: 20.0 mg/kg/injection, schedule: Q01DX002 (ip), vehicle: saline + alcohol
  T/C: 281 % of control
endpoint: mean survival time, dose: 25.0 mg/kg/injection, schedule: Q01DX002 (ip), vehicle: saline + alcohol
  T/C: 348 % of control
endpoint: mean survival time, dose: 30.0 mg/kg/injection, schedule: Q01DX001 (ip), vehicle: saline + alcohol
  T/C: 220 % of control and 319 % of control
endpoint: mean survival time, dose: 30.0 mg/kg/injection, schedule: Q01DX002 (ip), vehicle: saline + alcohol
  T/C: 184 % of control
endpoint: mean survival time, dose: 40.0 mg/kg/injection, schedule: Q01DX001 (ip), vehicle: saline + alcohol
  T/C: 343 % of control
endpoint: mean survival time, dose: 40.0 mg/kg/injection, schedule: Q01DX001 (ip), vehicle: saline
  T/C: 202 % of control
endpoint: median survival time, dose: 4.0 mg/kg/injection, schedule: Q01DX001 (ip), vehicle: saline + alcohol
  T/C: 93 % of control
endpoint: median survival time, dose: 8.0 mg/kg/injection, schedule: Q01DX001 (ip), vehicle: saline + alcohol
  T/C: 97 % of control
endpoint: median survival time, dose: 12.5 mg/kg/injection, schedule: Q01DX001 (ip), vehicle: DMSO
  T/C: 173 % of control
endpoint: median survival time, dose: 16.0 mg/kg/injection, schedule: Q01DX001 (ip), vehicle: saline + alcohol
  T/C: 97 % of control
endpoint: median survival time, dose: 20.0 mg/kg/injection, schedule: Q01DX001 (ip), vehicle: distilled water + alcohol
  T/C: 305 % of control
endpoint: median survival time, dose: 20.0 mg/kg/injection, schedule: Q01DX001 (ip), vehicle: saline + alcohol
  T/C: 190 % of control
endpoint: median survival time, dose: 24.0 mg/kg/injection, schedule: Q01DX001 (ip), vehicle: saline + alcohol
  T/C: 122 % of control and 153 % of control and 270 % of control
endpoint: median survival time, dose: 25.0 mg/kg/injection, schedule: Q01DX001 (ip), vehicle: DMSO
  T/C: 253 % of control
endpoint: median survival time, dose: 30.0 mg/kg/injection, schedule: Q01DX001 (ip), vehicle: saline + alcohol
  T/C: 201 % of control and 313 % of control
endpoint: median survival time, dose: 40.0 mg/kg/injection, schedule: Q01DX001 (ip), vehicle: distilled water + alcohol
  T/C: 183 % of control
endpoint: median survival time, dose: 40.0 mg/kg/injection, schedule: Q01DX001 (ip), vehicle: saline + alcohol
  T/C: 220 % of control
endpoint: median survival time, dose: 60.0 mg/kg/injection, schedule: Q01DX001 (ip), vehicle: saline + alcohol
  T/C: 166 % of control

## CN(Cc1cnc2nc(N)nc(N)c2n1)c1ccc(C(=O)N[C@@H](CCC(=O)O)C(=O)O)cc1
endpoint: median survival time, dose: 1.2 mg/kg/injection, schedule: Q04DX003 (ip), vehicle: saline
  T/C: 114 % of control
endpoint: median survival time, dose: 2.3 mg/kg/injection, schedule: Q04DX003 (ip), vehicle: saline
  T/C: 121 % of control
endpoint: median survival time, dose: 18.4 mg/kg/injection, schedule: Q04DX003 (ip), vehicle: saline
  T/C: 164 % of control
endpoint: median survival time, dose: 36.8 mg/kg/injection, schedule: Q04DX003 (ip), vehicle: saline
  T/C: 164 % of control

## CC[n+]1ccc(Nc2ccc(NC(=O)c3ccc(Nc4cc[n+](CC)c5ccc(N)cc45)cc3)cc2)cc1
endpoint: mean survival time, dose: 2.0 mg/kg/injection, schedule: Q01DX009 (ip), vehicle: saline
  T/C: 110 % of control
endpoint: mean survival time, dose: 4.0 mg/kg/injection, schedule: Q01DX009 (ip), vehicle: saline
  T/C: 111 % of control

## O=P1(NCCCl)OCCC(OO)N1CCCl (centres undefined)
endpoint: median survival time, dose: 40.0 mg/kg/injection, schedule: Q01DX001 (ip), vehicle: Klucel (hydroxypropylcellulose) (HPC)
  T/C: 105 % of control
endpoint: median survival time, dose: 80.0 mg/kg/injection, schedule: Q01DX001 (ip), vehicle: Klucel (hydroxypropylcellulose) (HPC)
  T/C: 111 % of control
endpoint: median survival time, dose: 160.0 mg/kg/injection, schedule: Q01DX001 (ip), vehicle: Klucel (hydroxypropylcellulose) (HPC)
  T/C: 113 % of control
endpoint: median survival time, dose: 320.0 mg/kg/injection, schedule: Q01DX001 (ip), vehicle: Klucel (hydroxypropylcellulose) (HPC)
  T/C: 91 % of control

## CCC(C)N(C)/N=N/c1nc[nH]c1C(N)=O (centres undefined)
endpoint: median survival time, dose: 16.0 mg/kg/injection, schedule: Q01DX005 (ip), vehicle: saline with Tween-80
  T/C: 105 % of control
endpoint: median survival time, dose: 32.0 mg/kg/injection, schedule: Q01DX005 (ip), vehicle: saline with Tween-80
  T/C: 105 % of control
endpoint: median survival time, dose: 64.0 mg/kg/injection, schedule: Q01DX005 (ip), vehicle: saline with Tween-80
  T/C: 116 % of control
endpoint: median survival time, dose: 128.0 mg/kg/injection, schedule: Q01DX005 (ip), vehicle: saline with Tween-80
  T/C: 116 % of control
